Test results published in patent US7160898B2, “Pharmacological treatment for sleep apnea” (Board of Trustees of The University of Illinois, priority 2002, dated 2007).
Entries after “also recorded” stand apart in the source; their conditions may differ.

Tested on: spontaneous sleep-related central apneas
Test: Induction and suppression of sleep apneas by serotonin and GR38032F (Example 3)
Assay type: in vivo, rat (Sprague-Dawley)
Method: Ten adult male Sprague-Dawley rats (Sasco-King, Wilmington, Mass.; 300 g) were maintained on a 12-h light (08:00–20:00 hour)/12-hour dark (20:00–08:00) cycle for one week, housed in individual cages, and given ad libitum access to food and water. Following the one week of acclimatization, animals were prepared for physiological testing via the surgical procedures (i.e., implantation of cortical electrodes for EEG recording and neck muscle electrodes for EMG recording, implantation of a radiotelemetry transmitter for BP and HP monitoring) as set forth above in Example 1. After completion of the surgical procedures, animals were allowed a one week recovery period prior to use in the present study. Each animal was recorded on four occasions, with recordings for an individual animal separated by at least three days. Fifteen minutes prior to each recording, each animal received (via intraperitoneal injection), in random order, one of the following: (a) saline solution (control); (b) 0.79 mg/kg serotonin; (c) 0.1 mg/kg GR38032F plus 0.79 mg/kg serotonin; or (d) 0.1 mg/kg GR38032F. For the GR38032F+serotonin test group, 0.1 mg/kg GR38032F was administered at time 09:30 followed by 0.79 mg/kg serotonin at time 09:45. Polygraphic recordings were made from 10:00–16:00. Respiration BP, EEG, and EMG data were determined and recorded via the experimental procedure as specifically set forth above in Example 2. As in Example 2, sleep apneas, defined as cessation of respiratory effort for at least 2.5 s, were scored for each recording session and were associated with the stage in which they occurred: NREM or REM sleep. The duration requirement of 2.5 s represents at least two “missed” breaths, which is analogous to a 10-s apnea duration requirement in humans. The effects of sleep stage (NREM vs REM) and injection (control vs. administration of either serotonin alone, GR38032F+serotonin, or GR38032F alone) on apnea indexes, respiratory pattern, BP, and HP were tested using analysis of variance (ANOVA) with repeated measures. Multiple comparisons were controlled using Fisher's protected least-significance difference (PLSD). One-way ANOVA was also performed by nonparametric (Kruskal-Wallis) analysis. Conclusions using parametric and nonparametric ANOVA were identical in all cases.

SMILES: Cc1nccn1CC1CCc2c(c3ccccc3n2C)C1=O.Cl.O.O (stereo not drawn) [GR38032F, 1,2,3,9-tetrahydro-9-methyl-3-[(2-methylimidazol-1-yl)methyl]carbazole-4-one, hydrochloride, dihydrate]
- antagonism of the serotonin-induced increase of REM sleep apneas (0.1 mg/kg GR38032F i.p. 15 min before 0.79 mg/kg serotonin, hydrochloride, dihydrate): abolished; also recorded: fully blocked
- effect on REM sleep spontaneous apneas (GR38032F alone 0.1 mg/kg i.p.): had no effect on REM sleep spontaneous apneas
- spontaneous apnea index during NREM sleep (i.p., serotonin 0.79 mg/kg, GR38032F 0.1 mg/kg, 6 hour recording): not affected by any drug treatment
